From PubChem BioAssay AID2060912 (Molecular Pharmacology Branch, DTP, NCI, 2025)
pIC50: −log10 of the molar value.

Test system: HUVEC/MSC spheroids viability
Experiment: Human HUVEC/MSC cell line growth inhibition [KRAS2];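 for viability, T/C: percent of DMSO vehicle control luminescence so 100% = untreated viability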
Conditions: for pIC50: curve of first compound; for viability, T/C: stronger effect = lower value
From the text: Multicellular complex tumor spheroid response to RAS pathway inhibitors in combination with a targeted agents in patient-derived cell lines with oncogenic KRAS variants from multiple cancer types
A high-throughput screen of multi-cell type tumor spheroids was designed to identify active combinations of targeted small molecules and KRAS pathway inhibitors. Complex spheroids include a stromal component modeled by human endothelial cells (HUVEC) and fibroblasts modeled by human mesenchymal stem cells (MSCs). The concentration ranges selected for each drug and investigational agent were based upon clinically achievable concentrations if the clinical Cmax of the agent was known. * [This particular assayID is a followup dataset requested by reviewers of the manuscript. It is a test of the HUVEC and MSC without the tumor cells, and was conducted using different drug plates and a different plate layout.]
Compounds. The drugs and investigational agents: BI-3406 (NSC825286), BAY-293 (NSC824723), batoprotafib (TNO155; NSC825523), sotorasib (AMG 510; NSC818433), MRTX1257 (NSC819558), elimusertib (BAY 1895344; NSC800525), molibresib (GSK525762; NSC774829), temuterkib (LY3214996; NSC803410), venetoclax (NSC766270), alisertib (NSC759677), olaparib (NSC753686), talazoparib (NSC767125), erdafitinib (NSC781556), ipatasertib (NSC767898), cabozantinib (NSC761068), nintedanib (NSC756659), abemaciclib (NSC768073), docetaxel (NSC628503), trametinib (NSC758246), and sapanisertib (NSC764658) were obtained from the National Cancer Institute (NCI) Developmental Therapeutics Program Chemical Repository. The FDA-approved anticancer drug set is available from the Developmental Therapeutics Program. […] The stock solutions were prepared in dimethyl sulfoxide (DMSO, Sigma-Aldrich, St. Louis, MO, cat. D2650) at 800-fold the tested concentration and stored at -70 degrees C prior to their use. All drugs and investigational agents were tested over a range starting from a high concentration at or near the clinical Cmax and decreasing in half-log increments. If the clinical Cmax for an agent had not been determined, the highest concentration tested was 10 microM.
Cell Culture. All cells were maintained in an incubator at 37 degrees C and 5% CO2 with 95% humidity. The PDC lines were cultured according to standard operating procedures established by the NCI PDMR (https://pdmr.cancer.gov/sops/default.htm). Briefly, all PDCs were thawed and cultured in Matrigel-coated flasks prepared with a working solution of 1X Ham's F-12 nutrient mix, without supplementation (Invitrogen, Waltham, MA, cat. 11765054), 100 U/mL penicillin-streptomycin (Invitrogen, cat. 15140122), and 2.5% Matrigel (Corning Inc., Corning, NY, cat. 354248) for the first three passages. All PDCs were cultured in complete DMEM/F-12 media containing advanced DMEM/F-12 (Invitrogen, cat. 12634028), 4.9% defined fetal bovine serum, heat inactivated (HyClone Laboratories Inc., Logan, UT, cat. SH30070.03HI), 389 ng/mL hydrocortisone (Sigma-Aldrich, cat. H4001), 9.7 ng/mL human EGF recombinant protein (Invitrogen, cat. PHG0313), 23.4 microg/mL adenine (Sigma-Aldrich, cat. A2786), 97.3 U/mL penicillin-streptomycin (Invitrogen, cat. 15140122), 1.9 mM L-glutamine (Invitrogen, cat. 25030081), and 9.7 microM Y-27632 dihydrochloride (Tocris Bioscience, Bristol, United Kingdom, cat. 1254). The PDCs were cultured in complete DMEM/F12 media without 9.7 microM Y-27632 dihydrochloride for at least two passages prior to the screen. The established cell line HOP-62 was cultured in RPMI 1640 medium, HEPES (Invitrogen, cat. 22400105) with 10% defined fetal bovine serum (HyClone Laboratories Inc., cat. SH30070.03) and 2 mM L-glutamine (Invitrogen, cat. 25030081). The pooled donor HUVEC were cultured in endothelial cell growth medium 2 (PromoCell, Heidelberg, Germany, cat. C-22011) and the hMSC were cultured in mesenchymal stem cell growth medium 2 (PromoCell, cat. C-28009). […]

[1] = second compound 0.0316 µM, first compound 0.0316 µM
[2] = second compound 0.0316 µM, first compound 0.1 µM
[3] = second compound 0.1 µM, first compound 0.0316 µM
[4] = second compound 0.1 µM, first compound 0.1 µM
[5] = second compound 0.316 µM, first compound 0.0316 µM
[6] = second compound 0.316 µM, first compound 0.1 µM
[7] = second compound 1 µM, first compound 0.0316 µM
[8] = second compound 1 µM, first compound 0.1 µM
[9] = second compound 3.16 µM, first compound 0.0316 µM
[10] = second compound 3.16 µM, first compound 0.1 µM
[11] = second compound 10 µM, first compound 0.0316 µM
[12] = second compound 10 µM, first compound 0.1 µM
[13] = second compound 0.0316 µM, first compound 0.000316 µM
[14] = second compound 0.0316 µM, first compound 0.001 µM
[15] = second compound 0.0316 µM, first compound 0.00316 µM
[16] = second compound 0.0316 µM, first compound 0.01 µM
[17] = second compound 0.1 µM, first compound 0.000316 µM
[18] = second compound 0.1 µM, first compound 0.001 µM
[19] = second compound 0.1 µM, first compound 0.00316 µM
[20] = second compound 0.1 µM, first compound 0.01 µM
[21] = second compound 0.316 µM, first compound 0.000316 µM
[22] = second compound 0.316 µM, first compound 0.001 µM
[23] = second compound 0.316 µM, first compound 0.00316 µM
[24] = second compound 0.316 µM, first compound 0.01 µM
[25] = second compound 1 µM, first compound 0.000316 µM
[26] = second compound 1 µM, first compound 0.001 µM
[27] = second compound 1 µM, first compound 0.00316 µM
[28] = second compound 1 µM, first compound 0.01 µM
[29] = second compound 3.16 µM, first compound 0.000316 µM
[30] = second compound 3.16 µM, first compound 0.001 µM
[31] = second compound 3.16 µM, first compound 0.00316 µM
[32] = second compound 3.16 µM, first compound 0.01 µM
[33] = second compound 10 µM, first compound 0.000316 µM
[34] = second compound 10 µM, first compound 0.001 µM
[35] = second compound 10 µM, first compound 0.00316 µM
[36] = second compound 10 µM, first compound 0.01 µM

With `CC(C)NCC(C(=O)N1CCN(c2ncnc3c2C(C)CC3O)CC1)c1ccc(Cl)cc1` (stereo unspecified) + C=CC(=O)N1CCN(c2nc(=O)n(-c3c(C)ccnc3C(C)C)c3nc(-c4c(O)cccc4F)c(F)cc23)C(C)C1 the pIC50 (second compound 0.0316 µM) was less than 5.00, the pIC50 (second compound 0.1 µM) was less than 5.00 and the pIC50 (second compound 0.316 µM) was less than 5.00. For the same molecule, the pIC50 (second compound 1 µM) was less than 5.00, the pIC50 (second compound 3.16 µM) was less than 5.00 and the pIC50 (second compound 10 µM) was less than 5.00. For the same molecule, the viability, T/C [1] was 87.5%, the viability, T/C [2] was 93.7% and the viability, T/C (second compound 0.0316 µM, first compound 0.316 µM) was 97.1%. For the same molecule, the viability, T/C (second compound 0.0316 µM, first compound 1 µM) was 77.7%, the viability, T/C (second compound 0.0316 µM, first compound 3.16 µM) was 52.4% and the viability, T/C (second compound 0.0316 µM, first compound 10 µM) was 53.6%. For the same molecule, the viability, T/C [3] was 92.4%, the viability, T/C [4] was 104% and the viability, T/C (second compound 0.1 µM, first compound 0.316 µM) was 85.8%. It also gave a viability, T/C (second compound 0.1 µM, first compound 1 µM) of 76.1%, a viability, T/C (second compound 0.1 µM, first compound 3.16 µM) of 54.9% and a viability, T/C (second compound 0.1 µM, first compound 10 µM) of 64.9%. The viability, T/C [5] was 98.7%, the viability, T/C [6] was 102% and the viability, T/C (second compound 0.316 µM, first compound 0.316 µM) was 82.2%. For the same molecule, the viability, T/C (second compound 0.316 µM, first compound 1 µM) was 65.8%, the viability, T/C (second compound 0.316 µM, first compound 3.16 µM) was 59.4% and the viability, T/C (second compound 0.316 µM, first compound 10 µM) was 63.1%. It also gave a viability, T/C [7] of 105%, a viability, T/C [8] of 99.4% and a viability, T/C (second compound 1 µM, first compound 0.316 µM) of 96.4%. It also gave a viability, T/C (second compound 1 µM, first compound 1 µM) of 71.3%, a viability, T/C (second compound 1 µM, first compound 3.16 µM) of 58% and a viability, T/C (second compound 1 µM, first compound 10 µM) of 68.1%. It also gave a viability, T/C [9] of 96.8%, a viability, T/C [10] of 124% and a viability, T/C (second compound 3.16 µM, first compound 0.316 µM) of 86.6%. For the same molecule, the viability, T/C (second compound 3.16 µM, first compound 1 µM) was 84.6%, the viability, T/C (second compound 3.16 µM, first compound 3.16 µM) was 62.9% and the viability, T/C (second compound 3.16 µM, first compound 10 µM) was 68.9%. The viability, T/C [11] was 110%, the viability, T/C [12] was 119% and the viability, T/C (second compound 10 µM, first compound 0.316 µM) was 102%. For the same molecule, the viability, T/C (second compound 10 µM, first compound 1 µM) was 64.5%, the viability, T/C (second compound 10 µM, first compound 3.16 µM) was 65% and the viability, T/C (second compound 10 µM, first compound 10 µM) was 47.2%.
In the case of `Cn1ncnc1[C@H]1c2n[nH]c(=O)c3cc(F)cc(c23)N[C@@H]1c1ccc(F)cc1` + CC1OCC2(CCN(c3cnc(Sc4ccnc(N)c4Cl)c(N)n3)CC2)C1N, the pIC50 (second compound 0.0316 µM) was less than 7.00, the pIC50 (second compound 0.1 µM) was less than 7.00 and the pIC50 (second compound 0.316 µM) was less than 7.00. The pIC50 (second compound 1 µM) was less than 7.00, the pIC50 (second compound 3.16 µM) was less than 7.00 and the pIC50 (second compound 10 µM) was less than 7.00. It also gave a viability, T/C [13] of 105%, a viability, T/C [14] of 111% and a viability, T/C [15] of 97.5%. For the same molecule, the viability, T/C [16] was 86.9%, the viability, T/C [1] was 90.8% and the viability, T/C [2] was 89.7%. It also gave a viability, T/C [17] of 87.9%, a viability, T/C [18] of 114% and a viability, T/C [19] of 99.9%. For the same molecule, the viability, T/C [20] was 75.7%, the viability, T/C [3] was 93.2% and the viability, T/C [4] was 95.6%. The viability, T/C [21] was 80%, the viability, T/C [22] was 111% and the viability, T/C [23] was 98.5%. The viability, T/C [24] was 96.9%, the viability, T/C [5] was 93.2% and the viability, T/C [6] was 81.7%. The viability, T/C [25] was 83.9%, the viability, T/C [26] was 93.7% and the viability, T/C [27] was 95.4%. The viability, T/C [28] was 84.3%, the viability, T/C [7] was 93.8% and the viability, T/C [8] was 67.7%. The viability, T/C [29] was 79.7%, the viability, T/C [30] was 94.4% and the viability, T/C [31] was 80.9%. The viability, T/C [32] was 74%, the viability, T/C [9] was 76.8% and the viability, T/C [10] was 69.2%. It also gave a viability, T/C [33] of 69.7%, a viability, T/C [34] of 82.3% and a viability, T/C [35] of 67.3%. For the same molecule, the viability, T/C [36] was 68.3%, the viability, T/C [11] was 65.7% and the viability, T/C [12] was 56%.
For `CC(C)n1nc(-c2ccc3oc(N)nc3c2)c2c(N)ncnc21` + CNCc1ccccc1-c1csc(C(C)Nc2nc(C)nc3cc(OC)c(OC)cc23)c1, the pIC50 (second compound 0.0316 µM) was 8.50, the pIC50 (second compound 0.1 µM) was 8.51 and the pIC50 (second compound 0.316 µM) was 8.15. For the same molecule, the pIC50 (second compound 1 µM) was 8.10, the pIC50 (second compound 3.16 µM) was 8.11 and the pIC50 (second compound 10 µM) was greater than 9.50. For the same molecule, the viability, T/C [13] was 85.2%, the viability, T/C [14] was 69% and the viability, T/C [15] was 50.2%. It also gave a viability, T/C [16] of 44%, a viability, T/C [1] of 45.5% and a viability, T/C [2] of 44.4%. For the same molecule, the viability, T/C [17] was 84.8%, the viability, T/C [18] was 64.6% and the viability, T/C [19] was 49.9%. The viability, T/C [20] was 45.6%, the viability, T/C [3] was 46.4% and the viability, T/C [4] was 45%. The viability, T/C [21] was 81.9%, the viability, T/C [22] was 66.5% and the viability, T/C [23] was 50.5%. It also gave a viability, T/C [24] of 51.9%, a viability, T/C [5] of 45.4% and a viability, T/C [6] of 37.6%. The viability, T/C [25] was 70.1%, the viability, T/C [26] was 52.5% and the viability, T/C [27] was 56.2%. For the same molecule, the viability, T/C [28] was 50.6%, the viability, T/C [7] was 47% and the viability, T/C [8] was 37.5%. It also gave a viability, T/C [29] of 89.7%, a viability, T/C [30] of 79% and a viability, T/C [31] of 67.5%. For the same molecule, the viability, T/C [32] was 40.7%, the viability, T/C [9] was 50.2% and the viability, T/C [10] was 36.5%. The viability, T/C [33] was 0.36%, the viability, T/C [34] was 0.39% and the viability, T/C [35] was 0.37%. The viability, T/C [36] was 0.37%, the viability, T/C [11] was 0.42% and the viability, T/C [12] was 0.4%.
